According to ChEMBL document CHEMBL4414548 (J Med Chem, 2019):

Assays:
[1] = Ratio of drug concentration in IL12/IL18-induced C57BL/6 mouse serum at 3 mg/kg, po to IC50 for TYK2 JH2 domain in mouse whole blood; format: ADME, organism-based; conditions: in vivo
[2] = target: T1, Non-receptor tyrosine-protein kinase TYK2 (Homo sapiens, UniProt P29597); assay: Inhibition of TYK2 JH2 domain in human whole blood assessed as inhibition of IFNalpha-induced STAT5 phosphorylation preincubated for 1 hr followed by IFNalpha stimulation and measured after 15 mins by fluorescence assay; format: tissue-based
Mus musculus [3] = assay: Inhibition of IL12/IL18-induced IFNgamma production in C57BL/6 mouse at 0.3 mg/kg, po pretreated for 1 hr followed by IL12 stimulation and subsequent IL18 addition and measured after 3 hrs relative to control; format: functional; conditions: C57BL/6, po
[4] = target: Non-receptor tyrosine-protein kinase TYK2 (Mus musculus, UniProt Q9R117); assay: Inhibition of TYK2 JH2 domain in mouse whole blood assessed as inhibition of IFNalpha-induced STAT1 phosphorylation preincubated for 1 hr followed by IFNalpha stimulation and measured after 15 mins by fluorescence assay; format: tissue-based
[5] = Drug concentration in IL12/IL18-induced C57BL/6 mouse serum at 10 mg/kg, po pretreated for 1 hr followed by IL12 stimulation and subsequent IL18 addition and measured after 5 hrs; format: ADME, organism-based; conditions: read-out: Drug uptake
[6] = Partition coefficient, log P of compound by HPLC analysis; format: physicochemical; conditions: octanol/water
[7] = Drug concentration in IL12/IL18-induced C57BL/6 mouse serum at 0.3 mg/kg, po pretreated for 1 hr followed by IL12 stimulation and subsequent IL18 addition and measured after 5 hrs; format: ADME, organism-based; conditions: read-out: Drug uptake
[8] = Half life in human liver microsomes; format: ADME, Microsome
[9] = Half life in cynomolgus monkey liver microsomes; format: ADME, Macaca fascicularis, Microsome
[10] = Drug concentration in IL12/IL18-induced C57BL/6 mouse serum at 3 mg/kg, po pretreated for 1 hr followed by IL12 stimulation and subsequent IL18 addition and measured after 5 hrs; format: ADME, organism-based; conditions: read-out: Drug uptake
[11] = AUClast in mouse at 10 mg/kg, po after 7 hrs; format: ADME, organism-based; design: time < 7 hr, dose 10 mg/kg, route oral; conditions: in vivo
[12] = Ratio of drug concentration in IL12/IL18-induced C57BL/6 mouse serum at 0.3 mg/kg, po to IC50 for TYK2 JH2 domain in mouse whole blood; format: ADME, organism-based; conditions: in vivo
JAK1/TYK2 = JAK1/TYK2 (Homo sapiens, UniProt P23458+P29597); assay: Inhibition of TYK2/JAK1 in IFNalpha-stimulated human Kit225 cells by steady-glo luciferase assay
[13] = Permeability across apical to basolateral side in human Caco2 cells; format: ADME, cell-based; conditions: Caco-2, read-out: permeability
[14] = Efflux ratio of permeability in human Caco2; format: ADME, cell-based; conditions: Caco-2
[15] = target: Tyrosine-protein kinase JAK2 (Homo sapiens, UniProt O60674); assay: Inhibition of JAK2 JH1 domain (unknown origin)
[16] = Half life in mouse liver microsomes; format: ADME, Microsome
[17] = Terminal drug concentration in CD40-induced B6 CB17 mouse serum at 80 mg/kg, po BID administered as nanosuspension measured 24 hrs post-last dose; format: ADME, organism-based; conditions: read-out: Drug uptake
[18] = target: T1, Non-receptor tyrosine-protein kinase TYK2; assay: Inhibition of TYK2 JH1 domain (unknown origin)
[19] = Ratio of drug concentration in IL12/IL18-induced C57BL/6 mouse serum at 10 mg/kg, po to IC50 for TYK2 JH2 domain in mouse whole blood; format: ADME, organism-based; conditions: in vivo
[20] = Half life in rat liver microsomes; format: ADME, Microsome
[21] = Terminal drug concentration in CD40-induced B6 CB17 mouse serum at 25 mg/kg, po BID administered as nanosuspension measured 24 hrs post-last dose; format: ADME, organism-based; conditions: read-out: Drug uptake
[22] = Drug metabolism in C57BL/6 mouse plasma assessed as amide formation at 0.3 to 10 mg/kg, po; format: ADME, organism-based; conditions: in vivo
[23] = Half life in dog liver microsomes; format: ADME, Canis lupus familiaris, Microsome
[24] = target: T1, Non-receptor tyrosine-protein kinase TYK2; assay: Inhibition of fluorescein-labeled kinase tracer binding to His-TVMV-fused TYK2 JH2 domain (575 to 869 residues) (unknown origin) measured after 90 mins by HTRF assay
[25] = Cmax in mouse at 10 mg/kg, po after 7 hrs; format: ADME, organism-based; design: dose 10 mg/kg, route oral; conditions: in vivo
[26] = Ratio of drug concentration in IL12/IL18-induced C57BL/6 mouse serum at 1 mg/kg, po to IC50 for TYK2 JH2 domain in mouse whole blood; format: ADME, organism-based; conditions: in vivo
[27] = Drug concentration in IL12/IL18-induced C57BL/6 mouse serum at 1 mg/kg, po pretreated for 1 hr followed by IL12 stimulation and subsequent IL18 addition and measured after 5 hrs; format: ADME, organism-based; conditions: read-out: Drug uptake
Mus musculus [28] = assay: Inhibition of IL12/IL18-induced IFNgamma production in C57BL/6 mouse at 3 mg/kg, po pretreated for 1 hr followed by IL12 stimulation and subsequent IL18 addition and measured after 3 hrs relative to control; format: functional; conditions: C57BL/6, po
[29] = target: T1, Non-receptor tyrosine-protein kinase TYK2; assay: Inhibition of TYK2 JH2 (unknown origin) by morrison titration assay; conditions: read-out: Ki(app)
Mus musculus [30] = assay: Inhibition of IL12/IL18-induced IFNgamma production in C57BL/6 mouse at 10 mg/kg, po pretreated for 1 hr followed by IL12 stimulation and subsequent IL18 addition and measured after 3 hrs relative to control; format: functional; conditions: C57BL/6, po
[31] = target: Tyrosine-protein kinase JAK1 (Homo sapiens, UniProt P23458); assay: Inhibition of JAK1 JH1 domain (unknown origin)
[32] = Terminal drug concentration in CD40-induced B6 CB17 mouse serum at 250 mg/kg, po BID administered as nanosuspension measured 24 hrs post-last dose; format: ADME, organism-based; conditions: read-out: Drug uptake
Mus musculus [33] = assay: Inhibition of IL12/IL18-induced IFNgamma production in C57BL/6 mouse at 1 mg/kg, po pretreated for 1 hr followed by IL12 stimulation and subsequent IL18 addition and measured after 3 hrs relative to control; format: functional; conditions: C57BL/6, po

T1 sequence (P29597 whole entry, the tested form may be a part): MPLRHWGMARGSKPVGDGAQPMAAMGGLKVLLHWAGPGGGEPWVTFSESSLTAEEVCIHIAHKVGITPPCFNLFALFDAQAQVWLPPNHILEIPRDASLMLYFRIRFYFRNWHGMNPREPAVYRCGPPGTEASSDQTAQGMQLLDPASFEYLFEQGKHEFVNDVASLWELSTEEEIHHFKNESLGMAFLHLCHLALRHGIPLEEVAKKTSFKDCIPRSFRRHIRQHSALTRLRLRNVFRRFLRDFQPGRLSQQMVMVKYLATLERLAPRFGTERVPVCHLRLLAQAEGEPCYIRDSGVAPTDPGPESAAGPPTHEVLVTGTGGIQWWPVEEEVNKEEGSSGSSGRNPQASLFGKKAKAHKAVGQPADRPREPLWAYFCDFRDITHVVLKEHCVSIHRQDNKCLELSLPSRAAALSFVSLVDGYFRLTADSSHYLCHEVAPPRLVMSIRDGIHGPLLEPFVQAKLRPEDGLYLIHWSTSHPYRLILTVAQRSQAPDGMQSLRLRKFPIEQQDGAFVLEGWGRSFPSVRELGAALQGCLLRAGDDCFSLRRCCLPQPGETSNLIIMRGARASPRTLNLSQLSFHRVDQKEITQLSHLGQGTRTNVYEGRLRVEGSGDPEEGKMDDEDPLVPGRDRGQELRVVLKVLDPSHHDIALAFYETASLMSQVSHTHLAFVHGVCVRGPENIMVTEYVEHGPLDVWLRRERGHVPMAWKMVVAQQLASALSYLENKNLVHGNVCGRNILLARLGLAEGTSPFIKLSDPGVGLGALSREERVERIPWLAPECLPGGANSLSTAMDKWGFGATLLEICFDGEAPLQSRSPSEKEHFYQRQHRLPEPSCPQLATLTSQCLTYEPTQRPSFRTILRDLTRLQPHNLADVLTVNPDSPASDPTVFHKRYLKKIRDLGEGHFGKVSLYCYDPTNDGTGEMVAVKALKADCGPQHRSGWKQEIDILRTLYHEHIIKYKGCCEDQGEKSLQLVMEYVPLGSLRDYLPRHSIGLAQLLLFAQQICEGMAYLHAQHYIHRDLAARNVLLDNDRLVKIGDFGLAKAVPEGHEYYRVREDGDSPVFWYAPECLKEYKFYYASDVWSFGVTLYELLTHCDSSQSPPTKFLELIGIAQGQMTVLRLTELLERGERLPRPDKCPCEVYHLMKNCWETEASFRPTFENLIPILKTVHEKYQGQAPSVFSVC
Chain of Non-receptor tyrosine-protein kinase TYK2 (Mus musculus, UniProt Q9R117) (Q9R117 whole entry, the tested form may be a part): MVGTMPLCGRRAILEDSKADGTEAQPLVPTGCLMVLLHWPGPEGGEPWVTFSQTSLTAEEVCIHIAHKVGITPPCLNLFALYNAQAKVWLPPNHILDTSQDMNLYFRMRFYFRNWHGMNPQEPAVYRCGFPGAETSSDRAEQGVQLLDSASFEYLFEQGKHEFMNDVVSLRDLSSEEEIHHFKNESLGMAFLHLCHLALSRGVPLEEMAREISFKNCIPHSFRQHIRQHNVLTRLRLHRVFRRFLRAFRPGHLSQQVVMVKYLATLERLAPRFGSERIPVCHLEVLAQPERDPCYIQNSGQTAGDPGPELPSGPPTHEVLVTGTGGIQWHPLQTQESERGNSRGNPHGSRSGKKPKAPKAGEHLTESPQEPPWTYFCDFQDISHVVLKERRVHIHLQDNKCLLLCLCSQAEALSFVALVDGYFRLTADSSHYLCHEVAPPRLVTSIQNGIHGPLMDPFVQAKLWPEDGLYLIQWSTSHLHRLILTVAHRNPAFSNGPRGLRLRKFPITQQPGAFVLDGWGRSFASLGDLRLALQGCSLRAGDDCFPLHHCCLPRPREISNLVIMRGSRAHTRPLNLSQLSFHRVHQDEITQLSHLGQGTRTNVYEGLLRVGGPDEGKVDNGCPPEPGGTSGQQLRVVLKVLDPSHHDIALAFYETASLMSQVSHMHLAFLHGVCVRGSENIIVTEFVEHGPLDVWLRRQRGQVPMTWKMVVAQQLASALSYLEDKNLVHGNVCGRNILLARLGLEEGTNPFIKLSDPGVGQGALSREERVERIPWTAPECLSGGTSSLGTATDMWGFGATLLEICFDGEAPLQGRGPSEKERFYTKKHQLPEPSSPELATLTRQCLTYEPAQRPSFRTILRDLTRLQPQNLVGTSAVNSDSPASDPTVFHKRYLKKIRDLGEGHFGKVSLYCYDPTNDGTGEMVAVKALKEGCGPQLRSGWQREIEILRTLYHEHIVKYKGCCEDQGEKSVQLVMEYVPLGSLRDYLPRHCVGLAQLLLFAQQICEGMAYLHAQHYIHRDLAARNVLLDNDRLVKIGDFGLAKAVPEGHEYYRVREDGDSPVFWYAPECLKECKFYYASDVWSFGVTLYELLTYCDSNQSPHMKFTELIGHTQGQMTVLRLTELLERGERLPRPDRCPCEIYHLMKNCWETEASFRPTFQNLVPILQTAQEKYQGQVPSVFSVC
Chain of Tyrosine-protein kinase JAK2 (O60674 whole entry, the tested form may be a part): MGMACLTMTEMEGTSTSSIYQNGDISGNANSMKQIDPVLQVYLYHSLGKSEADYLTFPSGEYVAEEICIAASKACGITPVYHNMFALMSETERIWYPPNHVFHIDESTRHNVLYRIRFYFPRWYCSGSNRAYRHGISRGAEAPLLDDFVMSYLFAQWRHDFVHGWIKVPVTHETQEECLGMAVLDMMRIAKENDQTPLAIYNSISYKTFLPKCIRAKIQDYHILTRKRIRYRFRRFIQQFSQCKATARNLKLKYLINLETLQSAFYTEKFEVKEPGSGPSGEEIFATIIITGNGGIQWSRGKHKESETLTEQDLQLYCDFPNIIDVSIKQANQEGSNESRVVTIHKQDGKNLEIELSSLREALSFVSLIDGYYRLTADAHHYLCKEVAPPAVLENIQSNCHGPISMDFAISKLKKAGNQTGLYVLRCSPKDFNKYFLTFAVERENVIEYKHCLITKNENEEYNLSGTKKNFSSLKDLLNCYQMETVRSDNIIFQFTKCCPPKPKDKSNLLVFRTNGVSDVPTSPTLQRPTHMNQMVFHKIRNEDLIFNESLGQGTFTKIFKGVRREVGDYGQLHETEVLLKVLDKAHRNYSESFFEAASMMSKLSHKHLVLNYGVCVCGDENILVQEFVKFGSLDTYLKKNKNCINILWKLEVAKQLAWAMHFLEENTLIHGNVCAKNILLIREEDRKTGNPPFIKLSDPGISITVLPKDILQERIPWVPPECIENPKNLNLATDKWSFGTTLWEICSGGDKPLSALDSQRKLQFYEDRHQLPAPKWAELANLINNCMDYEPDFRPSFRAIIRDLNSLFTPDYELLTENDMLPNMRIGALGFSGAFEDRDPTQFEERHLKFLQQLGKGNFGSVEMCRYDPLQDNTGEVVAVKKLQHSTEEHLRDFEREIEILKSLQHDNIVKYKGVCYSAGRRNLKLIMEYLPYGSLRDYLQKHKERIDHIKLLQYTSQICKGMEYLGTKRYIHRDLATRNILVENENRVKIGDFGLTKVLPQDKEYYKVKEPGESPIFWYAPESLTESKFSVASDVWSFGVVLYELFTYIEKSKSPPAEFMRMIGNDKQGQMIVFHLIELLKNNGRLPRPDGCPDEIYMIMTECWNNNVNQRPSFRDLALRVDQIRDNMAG
Chain of Tyrosine-protein kinase JAK1 (P23458 whole entry, the tested form may be a part): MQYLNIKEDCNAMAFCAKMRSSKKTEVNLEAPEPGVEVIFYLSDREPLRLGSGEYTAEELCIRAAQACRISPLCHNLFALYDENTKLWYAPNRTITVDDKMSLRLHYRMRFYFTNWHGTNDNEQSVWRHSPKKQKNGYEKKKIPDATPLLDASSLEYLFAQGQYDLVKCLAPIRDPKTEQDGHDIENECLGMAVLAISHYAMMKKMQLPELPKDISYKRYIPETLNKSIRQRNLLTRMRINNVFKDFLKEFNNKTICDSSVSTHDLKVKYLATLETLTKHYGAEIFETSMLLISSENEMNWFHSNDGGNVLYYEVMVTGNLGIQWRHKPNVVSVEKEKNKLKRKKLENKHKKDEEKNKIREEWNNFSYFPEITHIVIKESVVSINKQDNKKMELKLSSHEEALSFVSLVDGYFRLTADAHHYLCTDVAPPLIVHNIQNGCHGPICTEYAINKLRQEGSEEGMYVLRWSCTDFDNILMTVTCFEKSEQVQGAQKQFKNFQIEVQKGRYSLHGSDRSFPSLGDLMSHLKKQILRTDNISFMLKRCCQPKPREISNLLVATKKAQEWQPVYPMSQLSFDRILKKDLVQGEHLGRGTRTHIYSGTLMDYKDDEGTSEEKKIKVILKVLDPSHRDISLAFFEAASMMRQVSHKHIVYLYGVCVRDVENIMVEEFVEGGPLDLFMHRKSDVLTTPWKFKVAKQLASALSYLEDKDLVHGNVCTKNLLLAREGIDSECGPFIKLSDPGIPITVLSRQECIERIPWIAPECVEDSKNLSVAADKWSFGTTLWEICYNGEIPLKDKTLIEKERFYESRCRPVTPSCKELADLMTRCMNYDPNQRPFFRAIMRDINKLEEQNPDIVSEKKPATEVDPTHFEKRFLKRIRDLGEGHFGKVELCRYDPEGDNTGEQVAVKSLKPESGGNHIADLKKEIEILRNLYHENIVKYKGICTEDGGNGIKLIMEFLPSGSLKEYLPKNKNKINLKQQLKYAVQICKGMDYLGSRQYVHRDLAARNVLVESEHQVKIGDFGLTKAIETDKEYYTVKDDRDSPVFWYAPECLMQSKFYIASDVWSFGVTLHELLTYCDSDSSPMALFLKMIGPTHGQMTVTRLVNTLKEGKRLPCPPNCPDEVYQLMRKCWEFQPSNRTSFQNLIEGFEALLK
Chain of JAK1/TYK2 (P23458 whole entry): as the sequence (P23458 whole entry, the tested form may be a part) above
Chain of JAK1/TYK2 (P29597 whole entry): as the sequence (P29597 whole entry, the tested form may be a part) above

- Ratio [1]: 1
- IC50 [2]: 130 nM
- IC50 [4]: 120 nM
- concentration at 5 h [5]: 503 nM
- logP [6]: 2.45
- concentration at 5 h [7]: 24 nM
- half-life [8]: 48 min
- half-life [9]: 4 min
- concentration at 5 h [10]: 133 nM
- AUC(0-t) at 7 h [11]: 24.3 µM·h
- Ratio [12]: 0.2
- IC50 (JAK1/TYK2): 0.53 nM
- Papp A→B [13]: 28 ×10⁻⁶ cm/s
- efflux ratio [14]: 2.1
- IC50 [15]: > 50000 nM
- half-life [16]: 46 min
- concentration at 24 h [17]: 67 nM
- IC50 [18]: > 50000 nM
- Ratio [19]: 4
- half-life [20]: 49 min
- concentration at 24 h [21]: 12 nM
- Drug metabolism [22]: Metabolite_Notdetected
- half-life [23]: 19 min
- IC50 [24]: 0.53 nM
- Cmax [25]: 10500 nM
- Ratio [26]: 0.5
- concentration at 5 h [27]: 69 nM
- Ki [29]: 0.07 nM
- IC50 [31]: > 40000 nM
- concentration at 24 h [32]: 77 nM
SMILES: [2H]C([2H])([2H])NC(=O)c1nnc(Nc2ccccn2)cc1Nc1ccccc1S(C)(=O)=O
- inhibition in vivo at 0.3 mg/kg (Mus musculus [3]): 13%
- inhibition in vivo at 3 mg/kg (Mus musculus [28]): 77%
- inhibition in vivo at 10 mg/kg (Mus musculus [30]): 91%
- inhibition in vivo at 1 mg/kg (Mus musculus [33]): 56%
